The source of these data is the Kinase Knowledgebase extract (Sharma et al. 2016).

The pIC50 is the IC50 on a negative log10 scale, so that one unit is a factor of ten. Read a low pIC50 as a large IC50.

pIC50: −log10 of the molar value.

The target of this test is PIK3CG (human) (UniProt P48736). In words: Assessment of PIK3CG Kinase Activity.
Sequence of PIK3CG (human) (P48736 whole entry, looked up): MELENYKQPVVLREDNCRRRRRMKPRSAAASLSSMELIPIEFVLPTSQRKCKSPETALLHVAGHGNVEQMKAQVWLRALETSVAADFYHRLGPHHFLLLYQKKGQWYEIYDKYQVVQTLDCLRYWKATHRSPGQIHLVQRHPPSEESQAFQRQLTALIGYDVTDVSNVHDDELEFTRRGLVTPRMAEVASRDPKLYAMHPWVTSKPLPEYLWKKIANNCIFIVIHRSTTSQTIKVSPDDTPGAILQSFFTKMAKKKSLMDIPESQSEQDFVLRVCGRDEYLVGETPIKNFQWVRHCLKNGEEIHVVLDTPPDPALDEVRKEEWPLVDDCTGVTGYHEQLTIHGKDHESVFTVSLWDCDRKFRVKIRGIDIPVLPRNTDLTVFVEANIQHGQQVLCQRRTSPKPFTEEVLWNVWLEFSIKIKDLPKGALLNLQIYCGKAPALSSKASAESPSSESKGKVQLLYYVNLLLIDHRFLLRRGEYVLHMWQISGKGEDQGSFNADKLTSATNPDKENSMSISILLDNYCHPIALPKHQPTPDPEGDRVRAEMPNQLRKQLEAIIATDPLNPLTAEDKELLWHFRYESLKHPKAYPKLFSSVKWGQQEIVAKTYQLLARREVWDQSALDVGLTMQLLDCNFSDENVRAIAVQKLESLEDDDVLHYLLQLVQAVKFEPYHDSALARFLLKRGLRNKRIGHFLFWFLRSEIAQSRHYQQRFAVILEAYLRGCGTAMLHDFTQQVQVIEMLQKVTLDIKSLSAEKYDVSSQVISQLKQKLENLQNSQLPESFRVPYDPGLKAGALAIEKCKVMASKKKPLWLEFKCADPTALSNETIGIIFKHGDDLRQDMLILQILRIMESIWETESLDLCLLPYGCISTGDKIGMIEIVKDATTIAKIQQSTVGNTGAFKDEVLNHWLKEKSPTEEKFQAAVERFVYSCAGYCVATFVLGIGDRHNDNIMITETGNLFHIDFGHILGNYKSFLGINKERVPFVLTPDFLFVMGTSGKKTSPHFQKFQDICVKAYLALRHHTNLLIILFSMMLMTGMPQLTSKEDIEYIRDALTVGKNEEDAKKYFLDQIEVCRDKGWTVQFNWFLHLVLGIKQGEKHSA

Turning to `O=C(NCc1cccnc1N1CCCC1)Nc1nc2c(s1)-c1c(c(-c3cncnc3)nn1-c1ccccc1Cl)CC2`, the negative-log IC50 (pIC50) was > 6.10. The figure for `CCc1cnc(CCNC(=O)Nc2nc3c(s2)-c2c(c(-c4ccccc4)nn2-c2ccccc2Cl)CC3)o1` is > 6.10; for `CCc1noc(CCNC(=O)Nc2nc3c(s2)-c2c(c(-c4cccnc4)nn2-c2ccccc2Cl)CC3)n1` it is > 6.10. With `O=C(NCC1CCCN(c2ncccn2)C1)Nc1nc2c(s1)-c1c(c(-c3cccnc3)nn1-c1ccccc1Cl)CC2` (configuration not stated) the figure was > 6.10.

As for `CN(C)C(=O)CCNC(=O)Nc1nc2c(s1)-c1c(c(-c3ccccc3)nn1-c1ccccc1Cl)CC2`, the negative-log IC50 (pIC50) was > 6.10.

As to `CCN1CCC2(CCN(C(=O)Nc3nc4c(s3)-c3c(c(-c5cccnc5)nn3-c3ccccc3Cl)CC4)C2)C1` (configuration not stated), the negative logarithm of the IC50 (pIC50) is > 6.10. With `CCc1nnc(CCNC(=O)Nc2nc3c(s2)-c2c(c(-c4ccccc4)nn2-c2cccc(Cl)c2)CC3)o1` the figure was > 6.10; with `CN1CCC(n2nc(-c3cccnc3)c3c2-c2sc(NC(=O)NCCc4nc(C5CC5)no4)nc2CC3)CC1`, > 6.10. On to `CS(=O)(=O)c1cccc(CNC(=O)Nc2nc3c(s2)-c2c(c(-c4cncnc4)nn2-c2ccccc2Cl)CC3)c1`, for which the pIC50 was > 6.10. As for `CC(C)S(=O)(=O)NCCNC(=O)Nc1nc2c(s1)-c1c(c(-c3ccccc3)nn1-c1ccccc1Cl)CC2`, the negative-log IC50 (pIC50) is > 6.10. With `O=C(NCc1cccc(N2CCNC2=O)c1)Nc1nc2c(s1)-c1c(c(-c3cccnc3)nn1-c1ccccc1Cl)CC2`, the pIC50 was > 6.10. The figure for `CC(C)(C)OC(=O)CCNC(=O)Nc1nc2c(s1)-c1c(c(-c3ccccc3)nn1-c1cccc(Cl)c1)CC2` is > 6.10; for `CNC(=O)Nc1nc2c(s1)-c1c(c(-c3cncnc3)nn1-c1ccccc1F)CC2` it is > 6.10; for `CC(C)(C)COC(=O)N1CCC[C@@H]1CNC(=O)Nc1nc2c(s1)-c1c(c(-c3cncnc3)nn1-c1ccccc1Cl)CC2` it is > 6.10.

As to `NC(=O)Nc1nc2c(s1)-c1c(c(-c3cncnc3)nn1-c1ccccc1F)CC2`, the pIC50 was > 6.10. Consider `CC(C)(C)OC(=O)N1CCC[C@@H]1CNC(=O)Nc1nc2c(s1)-c1c(c(-c3ccccc3)nn1-c1ccccc1F)CC2`, for which the pIC50 was > 6.10.

`O=C(NCCc1nc(C2CC2)no1)Nc1nc2c(s1)-c1c(c(-c3cccnc3)nn1-c1ccccc1Cl)CC2`: the pIC50 was > 6.10.

Take `O=C(Nc1nc2c(s1)-c1c(c(-c3cccnc3)nn1-c1ccccc1Cl)CC2)N1CCCC(c2nc3ccccc3[nH]2)C1` (configuration not stated): the pIC50 is > 6.10. The figure for `CC(C)(C)OC(=O)NCc1cccc(CNC(=O)Nc2nc3c(s2)-c2c(c(-c4cccnc4)nn2-c2ccccc2Cl)CC3)c1` is > 6.10; for `O=C(NCc1ncc[nH]1)Nc1nc2c(s1)-c1c(c(-c3cccnc3)nn1-c1ccccc1Cl)CC2` it is > 6.10. For `Cn1cccc1CCNC(=O)Nc1nc2c(s1)-c1c(c(-c3cccnc3)nn1-c1ccccc1Cl)CC2`, the pIC50 was > 6.10. For `CC(C)(C)OC(=O)NCC1CCCN1C(=O)Nc1nc2c(s1)-c1c(c(-c3cccnc3)nn1-c1ccccc1Cl)CC2` (configuration not stated), the pIC50 is > 6.10.

Take `CCN(CC)CCNC(=O)Nc1nc2c(s1)-c1c(c(-c3cncnc3)nn1-c1ccccc1F)CC2`: the pIC50 was > 6.10. Turning to `O=C(NC[C@H]1CCCN1)Nc1nc2c(s1)-c1c(c(-c3cncnc3)nn1-c1ccccc1F)CC2`, the pIC50 is > 6.10. With `CC(C)NC(=O)Nc1nc2c(s1)-c1c(c(-c3cccnc3)nn1-c1ccccc1Cl)CC2` the figure was > 6.10; with `CCc1cnc(CCNC(=O)Nc2nc3c(s2)-c2c(c(-c4cccnc4)nn2C2CCN(C4CCCC4)CC2)CC3)o1`, > 6.10; with `CCCn1cnc(CCNC(=O)Nc2nc3c(s2)-c2c(c(-c4ccccc4)nn2-c2cccc(Cl)c2)CC3)c1`, > 6.10. The figure for `CN1CCC(CNC(=O)Nc2nc3c(s2)-c2c(c(-c4cccnc4)nn2-c2ccccc2Cl)CC3)CC1` is > 6.10. With `O=C(NCCc1nc(C2CC2)no1)Nc1nc2c(s1)-c1c(c(C3CC3)nn1-c1ccccc1Cl)CC2` the figure was > 6.10. For the molecule `CC1CC(c2ccc(O)cc2)CN1C(=O)Nc1nc2c(s1)-c1c(c(-c3cccnc3)nn1-c1ccccc1Cl)CC2` (configuration not stated), the negative-log IC50 (pIC50) is > 6.10.

On to `NC(=O)Nc1nc2c(s1)-c1c(c(-c3cncnc3)nn1-c1ccccc1Cl)CC2`, for which the negative logarithm of the IC50 (pIC50) was > 6.10. As for `CN1CCC(n2nc(-c3cccnc3)c3c2-c2sc(NC(=O)NCc4cccc(N5CCNC5=O)c4)nc2CC3)CC1`, the pIC50 is > 6.10.

As for `O=C(NCCn1ccnc1)Nc1nc2c(s1)-c1c(c(-c3cncnc3)nn1-c1ccccc1F)CC2`, the pIC50 was > 6.10. Turning to `O=C(NCCNS(=O)(=O)c1cccnc1)Nc1nc2c(s1)-c1c(c(-c3ccccc3)nn1-c1ccccc1Cl)CC2`, the pIC50 was > 6.10. Consider `O=C(NCCc1ccccn1)Nc1nc2c(s1)-c1c(c(-c3cccnc3)nn1-c1ccccc1Cl)CC2`, for which the pIC50 is > 6.10.

Consider `CCN(CC)C(=O)N1CC[C@H](CNC(=O)Nc2nc3c(s2)-c2c(c(-c4cncnc4)nn2-c2ccccc2Cl)CC3)C1`, for which the pIC50 was > 6.10. On to `CC(C)(C)OC(=O)CC1(O)CCN(C(=O)Nc2nc3c(s2)-c2c(c(-c4cccnc4)nn2-c2ccccc2Cl)CC3)CC1`, for which the negative-log IC50 (pIC50) was > 6.10. With `CCN1CCC[C@H]1CNC(=O)Nc1nc2c(s1)-c1c(c(-c3cccnc3)nn1-c1ccccc1Cl)CC2` the figure was > 6.10.

Consider `NC(=O)c1cccc(CNC(=O)Nc2nc3c(s2)-c2c(c(-c4cccnc4)nn2-c2ccccc2Cl)CC3)c1`, for which the pIC50 was > 6.10. As to `Cn1cc(CCNC(=O)Nc2nc3c(s2)-c2c(c(-c4ccccc4)nn2-c2ccccc2Cl)CC3)cn1`, the negative-log IC50 (pIC50) is > 6.10. On to `Nc1nnc(CNC(=O)Nc2nc3c(s2)-c2c(c(-c4cncnc4)nn2-c2ccccc2Cl)CC3)[nH]1`, for which the pIC50 was > 6.10. With `O=C(Nc1nc2c(s1)-c1c(c(-c3cccnc3)nn1-c1ccccc1Cl)CC2)N1CCCCC1c1nc2ccccc2[nH]1` (configuration not stated), the pIC50 was > 6.10. Turning to `CC(C)(C)OC(=O)N1CCCCC1CNC(=O)Nc1nc2c(s1)-c1c(c(-c3cccnc3)nn1-c1ccccc1Cl)CC2` (configuration not stated), the pIC50 was > 6.10. With `Cc1nc(C)c(S(=O)(=O)NCCNC(=O)Nc2nc3c(s2)-c2c(c(-c4ccccc4)nn2-c2ccccc2Cl)CC3)s1` the figure was > 6.10; with `NCCNC(=O)Nc1nc2c(s1)-c1c(c(-c3ccccc3)nn1-c1ccccc1Cl)CC2`, > 6.10. The figure for `C[C@@H](C(=O)N1CC[C@H](CNC(=O)Nc2nc3c(s2)-c2c(c(-c4cncnc4)nn2-c2ccccc2Cl)CC3)C1)N(C)C(=O)OC(C)(C)C` is > 6.10; for `O=C(NCCC(=O)N1CCCC1)Nc1nc2c(s1)-c1c(c(-c3cncnc3)nn1-c1ccccc1Cl)CC2` it is > 6.10; for `CC(=O)Nc1cccc(CNC(=O)Nc2nc3c(s2)-c2c(c(-c4cccnc4)nn2C2CCN(C4CCCC4)CC2)CC3)c1` it is > 6.10. With `O=C(NCCc1cccc(N2CCNC2=O)c1)Nc1nc2c(s1)-c1c(c(-c3cccnc3)nn1-c1ccccc1Cl)CC2` the figure was > 6.10; with `CC(C)c1cccc(CNC(=O)Nc2nc3c(s2)-c2c(c(C4CC4)nn2-c2ccccc2Cl)CC3)c1`, > 6.10.

For `Cc1nc[nH]c1-c1cccc(CNC(=O)Nc2nc3c(s2)-c2c(c(-c4cncnc4)nn2-c2ccccc2Cl)CC3)c1`, the negative-log IC50 (pIC50) was > 6.10. The figure for `O=C(NC[C@H]1CCCN1C(=O)N1CCCCC1)Nc1nc2c(s1)-c1c(c(-c3cncnc3)nn1-c1ccccc1Cl)CC2` is > 6.10.
